Measured values as given in EP4745117A1, “NOVEL INDENONE DERIVATIVE AND USE THEREOF” (Amyloid Solution Inc., priority 2023, dated 2025).

Experiments:
Aβ1-42 = molecular target: T1, Aβ1-42 (Homo sapiens, UniProt P05067); test: Amyloid-beta disaggregation test by Thioflavin-T analysis; format: biochemical; settings: for EC50: Aβ1-42 50 µM aggregated 24 hours, then compound 0 - 500 µM for 48 hours at 37 °C, concentration disaggregating 50 % of aggregates vs control, read-out: EC50 (µM) Aβ; for disaggregation effect for amyloid-beta protein aggregates: statement in words summarising the Thioflavin-T results
T1 construct: dissolving Aβ1-42 or Tau-RD3 (Tau repeat domain 3) monomers in DMSO
In short: (§1)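 Aβ1-42 (50 µM) or Tau-RD3 (35 µM) pre-aggregated 24 h at 37 °C, then incubated with compound (500 µM down to 0 µM, serial dilution) for 48 h at 37 °C. Read-out by Thioflavin-T (5 µM solution, glycine buffer pH 8.5) fluorescence, ex 450/em 485 nm. Values expressed relative to 72 h aggregated protein-only control (100%).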

[1] = molecular target: Tau-RD3 (Tau repeat domain 3) (Homo sapiens, UniProt P10636); test: Tau disaggregation test by Thioflavin-T analysis; format: biochemical; settings: for EC50: Tau-RD3 35 µM aggregated 24 hours, then compound 0 - 500 µM for 48 hours at 37 °C, concentration disaggregating 50 % of aggregates vs control, read-out: EC50 (µM) Tau; for disaggregation effect for tau protein aggregates: statement in words summarising the Thioflavin-T results
In short: as §1

[2] = tested on: amyloid-beta oligomers in HEK293 cells transfected with the APP E693Δ mutant plasmid; test: Amyloid-beta oligomer change by dot blot (A11 antibody) in an amyloid-beta oligomer-overexpressing cell line; format: cell-based; settings: compound 10 µM, 48 hours, dot blot of cell lysate, relative to control group (FIG. 1)
Excerpt: To observe the change in intracellular amyloid-beta oligomers, a plasmid with the APP E693Δ (Osaka mutation) mutant, which is associated with early-onset Alzheimer's disease and is known to induce intracellular amyloid-beta oligomer formation, was obtained from GenScript. This plasmid was transfected into HEK293 cells using a liposome-mediated method (Lipofectamine) to prepare a cell line that overexpresses intracellular amyloid-beta oligomers.
HEK293 cells transfected with the APP E693Δ mutant plasmid were incubated for 48 hours in a 37 °C, 5 % CO2 incubator, and then treated with the compounds prepared in 1.1, which were diluted to a concentration of 10 µM in the cell culture medium. The untransfected control group was treated with 0.1 % DMSO, the same as the compound-treated group.
The compound-treated cell lines were again incubated for 48 hours in a 37 °C, 5 % CO2 incubator and then used in the experiment.
After incubating the control and compound-treated cells from Example 2.2, a dot blot was performed using the cell lysate. A 3.5 µg sample was spotted onto a nitrocellulose membrane and air-dried, and then the membrane to which the sample was adhered was blocked with 5 % skim milk. After incubating with the amyloid oligomer antibody A11 to allow binding, the membrane was washed 4 times with TBST, and the secondary antibody was bound. The image signal was measured using a chemiluminescent substrate.
It was confirmed that the amount of amyloid-beta oligomers was reduced by each compound treatment compared to the control group.

Tau-RD3 (Tau repeat domain 3), sequence (P10636 623-653 limits assumed): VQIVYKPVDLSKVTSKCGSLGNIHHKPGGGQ
T1 sequence (P05067 672-713 limits assumed): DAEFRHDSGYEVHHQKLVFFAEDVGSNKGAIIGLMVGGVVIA

SMILES: Cc1ncsc1C1=C(c2ccc(N3CCN(C)CC3)cc2)C(=O)c2cc(N3CCN(CCO)CC3)ccc21 [Compound 74, 6-(4-(2-hydroxyethyl)piperazin-1-yl)-2-(4-(4-methylpiperazin-1-yl)phenyl)-3-(4-methylthiazol-5-yl)-1H-inden-1-one]
- EC50 (Aβ1-42): < 20 µM
- EC50 [1]: < 20 µM
- amyloid-beta oligomer reduction effect [2]: reduction effect

SMILES: Cc1cccc(C)c1C1=C(c2ccccc2)C(=O)c2cc(N3CCN(C)CC3)ccc21 [Compound 72, 3-(2,6-dimethylphenyl)-6-(4-methylpiperazin-1-yl)-2-phenyl-1H-inden-1-one]
- EC50 (Aβ1-42): < 20 µM
- disaggregation effect for amyloid-beta protein aggregates (Aβ1-42): remarkably excellent disaggregation effect
- EC50 [1]: < 20 µM
- disaggregation effect for tau protein aggregates [1]: remarkably excellent disaggregation effect
- amyloid-beta oligomer reduction effect [2]: reduction effect

SMILES: Cc1ncsc1C1=C(c2ccc(N3CCN(C)CC3)cc2)C(=O)c2cc(Cl)ccc21 [Compound 74-7, 6-chloro-2-(4-(4-methylpiperazin-1-yl)phenyl)-3-(4-methylthiazol-5-yl)-1H-inden-1-one]
- EC50 (Aβ1-42): < 20 µM
- disaggregation effect for amyloid-beta protein aggregates (Aβ1-42): remarkably excellent disaggregation effect
- EC50 [1]: < 20 µM
- disaggregation effect for tau protein aggregates [1]: remarkably excellent disaggregation effect
- amyloid-beta oligomer reduction effect [2]: reduction effect

SMILES: Cc1ncsc1C1=C(c2cccnc2)C(=O)c2cc(N(C)CCCc3ccccc3)ccc21 [Compound 65, 6-(methyl(3-phenylpropyl)amino)-3-(4-methylthiazol-5-yl)-2-(pyridin-3-yl)-1H-inden-1-one]
- disaggregation effect for amyloid-beta protein aggregates (Aβ1-42): remarkably excellent disaggregation effect
- EC50 [1]: < 20 µM
- disaggregation effect for tau protein aggregates [1]: remarkably excellent disaggregation effect
- amyloid-beta oligomer reduction effect [2]: reduction effect

SMILES: Cc1ncsc1C1=C(c2cccnc2)C(=O)c2cc(NC3CC3)ccc21 [Compound 63, 6-(cyclopropylamino)-3-(4-methylthiazol-5-yl)-2-(pyridin-3-yl)-1H-inden-1-one]
- EC50 (Aβ1-42): < 20 µM
- disaggregation effect for amyloid-beta protein aggregates (Aβ1-42): remarkably excellent disaggregation effect
- EC50 [1]: < 20 µM
- disaggregation effect for tau protein aggregates [1]: remarkably excellent disaggregation effect
- amyloid-beta oligomer reduction effect [2]: reduction effect

SMILES: Cc1ncsc1C1=C(c2ccc(N3CCN(C)CC3)cc2)C(=O)c2cc(N3CCN(C)CC3)ccc21 [Compound 75, 6-(4-methylpiperazin-1-yl)-2-(4-(4-methylpiperazin-1-yl)phenyl)-3-(4-methylthiazol-5-yl)-1H-inden-1-one]
- EC50 (Aβ1-42): < 20 µM
- EC50 [1]: < 20 µM
- amyloid-beta oligomer reduction effect [2]: reduction effect

SMILES: O=C1C(c2ccccc2)=C(c2ccccc2)c2ccc(N3CCN(CCO)CC3)cc21 [Compound 70, 6-(4-(2-hydroxyethyl)piperazin-1-yl)-2,3-diphenyl-1H-inden-1-one]
- EC50 (Aβ1-42): < 20 µM
- disaggregation effect for amyloid-beta protein aggregates (Aβ1-42): remarkably excellent disaggregation effect
- EC50 [1]: < 20 µM
- disaggregation effect for tau protein aggregates [1]: remarkably excellent disaggregation effect
- amyloid-beta oligomer reduction effect [2]: reduction effect

SMILES: CN1CCN(c2ccc(C3=C(c4ccccc4)c4ccccc4C3=O)cc2)CC1 [Compound 90, 2-(4-(4-methylpiperazin-1-yl)phenyl)-3-phenyl-1H-inden-1-one]
- EC50 (Aβ1-42): < 20 µM
- disaggregation effect for amyloid-beta protein aggregates (Aβ1-42): remarkably excellent disaggregation effect
- EC50 [1]: < 20 µM
- disaggregation effect for tau protein aggregates [1]: remarkably excellent disaggregation effect
- amyloid-beta oligomer reduction effect [2]: reduction effect

SMILES: Cc1ncsc1C1=C(c2cnn(C3CCN(C)CC3)c2)C(=O)c2cc(OCCCc3ccccc3)ccc21 [Compound 30, 2-(1-(1-methylpiperidin-4-yl)-1H-pyrazol-4-yl)-3-(4-methylthiazol-5-yl)-6-(3-phenylpropoxy)-1H-inden-1-one]
- EC50 (Aβ1-42): < 20 µM
- EC50 [1]: < 20 µM
- amyloid-beta oligomer reduction effect [2]: reduction effect

SMILES: COc1ccc2c(c1)C(=O)C(c1cncs1)=C2c1cncs1 [Compound 83-5, 6-methoxy-2,3-di(thiazol-5-yl)-1H-inden-1-one]
- EC50 (Aβ1-42): 20 to 100 µM
- EC50 [1]: 20 to 100 µM

SMILES: O=C1C(c2ccccc2)=C(c2ccccc2)c2ccccc21 [Compound 1, 2,3-diphenylinden-1-one]
- EC50 (Aβ1-42): < 20 µM
- EC50 [1]: > 250 µM

SMILES: Cc1ccccc1C1=C(c2ccccc2C(=O)O)C(=O)c2ccccc21 [Compound 99-8, 2-(1-oxo-3-(o-tolyl)-1H-inden-2-yl)benzoic acid]
- EC50 (Aβ1-42): > 250 µM
- EC50 [1]: 20 to 100 µM

SMILES: Cc1ncsc1C1=C(c2cnn(C)c2)C(=O)c2cc(OCCCc3ccccc3)ccc21 [Compound 28, 2-(1-methyl-1H-pyrazol-4-yl)-3-(4-methylthiazol-5-yl)-6-(3-phenylpropoxy)-1H-inden-1-one]
- EC50 (Aβ1-42): < 20 µM
- disaggregation effect for amyloid-beta protein aggregates (Aβ1-42): remarkably excellent disaggregation effect
- EC50 [1]: < 20 µM
- disaggregation effect for tau protein aggregates [1]: remarkably excellent disaggregation effect

SMILES: CNc1ccc2c(c1)C(=O)C(c1cccnc1)=C2c1scnc1C [Compound 50, 6-(methylamino)-3-(4-methylthiazol-5-yl)-2-(pyridin-3-yl)-1H-inden-1-one]
- EC50 (Aβ1-42): > 250 µM
- EC50 [1]: > 250 µM

SMILES: Cc1cc(OCCCc2ccccc2)cc2c1C(c1scnc1C)=C(c1cccnc1)C2=O [Compound 46, 4-methyl-3-(4-methylthiazol-5-yl)-6-(3-phenylpropoxy)-2-(pyridin-3-yl)-1H-inden-1-one]
- EC50 (Aβ1-42): < 20 µM
- disaggregation effect for amyloid-beta protein aggregates (Aβ1-42): remarkably excellent disaggregation effect
- EC50 [1]: < 20 µM
- disaggregation effect for tau protein aggregates [1]: remarkably excellent disaggregation effect

SMILES: O=C1C(c2cccnc2)=C(c2ccccc2)c2ccccc21 [Compound 7, 3-phenyl-2-(pyridin-3-yl)-1H-inden-1-one]
- EC50 (Aβ1-42): < 20 µM
- EC50 [1]: > 250 µM

SMILES: O=C1C(c2ccccc2)=C(c2ccccc2)c2ccc(Cl)cc21 [Compound 12-3, 6-chloro-2,3-diphenyl-1H-inden-1-one]
- EC50 (Aβ1-42): 100 to 250 µM
- EC50 [1]: > 250 µM

SMILES: Cc1ccccc1C1=C(c2ccccc2C)c2ccc(O)cc2C1=O [Compound 82, 6-hydroxy-2,3-di-o-tolyl-1H-inden-1-one]
- EC50 (Aβ1-42): < 20 µM
- EC50 [1]: 20 to 100 µM

SMILES: O=C1C(C2CCCCC2)=C(c2ccccc2)c2ccccc21 [Compound 11, 2-cyclohexyl-3-phenyl-1H-inden-1-one]
- EC50 (Aβ1-42): 100 to 250 µM
- EC50 [1]: > 250 µM

SMILES: CN1CCN(c2ccc3c(c2)C(=O)C(c2ccccc2)=C3c2ccccc2)CC1 [Compound 13, 6-(4-methylpiperazin-1-yl)-2,3-diphenyl-1H-inden-1-one]
- EC50 (Aβ1-42): < 20 µM
- disaggregation effect for amyloid-beta protein aggregates (Aβ1-42): remarkably excellent disaggregation effect
- EC50 [1]: < 20 µM
- disaggregation effect for tau protein aggregates [1]: remarkably excellent disaggregation effect
- amyloid-beta oligomer reduction effect [2]: reduction effect

SMILES: Cc1scnc1C1=C(c2cccnc2)C(=O)c2cc(O)ccc21 [Compound 23-10, 6-hydroxy-3-(5-methylthiazol-4-yl)-2-(pyridin-3-yl)-1H-inden-1-one]
- EC50 (Aβ1-42): > 250 µM
- EC50 [1]: 20 to 100 µM

SMILES: CN1CCN(c2ccc3c(c2)C(=O)C(c2cccc(N4CCOCC4)c2)=C3c2ccccc2)CC1 [Compound 73, 6-(4-methylpiperazin-1-yl)-2-(3-morpholinophenyl)-3-phenyl-1H-inden-1-one]
- EC50 (Aβ1-42): 100 to 250 µM
- EC50 [1]: 100 to 250 µM

SMILES: Cc1ncsc1C1=C(c2cccnc2)C(=O)c2cc(NC3CCCC3)ccc21 [Compound 49, 6-(cyclopentylamino)-3-(4-methylthiazol-5-yl)-2-(pyridin-3-yl)-1H-inden-1-one]
- EC50 (Aβ1-42): < 20 µM
- EC50 [1]: > 250 µM
